Assay results from patent US10538554B2, “Peptides and uses therefor as antiviral agents” (priority 2015, dated 2020).
Where two headings read alike, the source gives them in different places. Bridge positions count the residues as written; N and C are the ends. Square brackets hold non-standard residues; d marks the D form. Peptide text beside a SMILES is read from it.

What was measured:
H9N2 A/Iran/16/2000 = conditions: 48 h, 50 μM
H3N8 A/Miami/2/63 = conditions: A/Miami/2/63, 48 h
H3N2 A/HK/8/1968 = conditions: A/HK/8/1968, 48 h
[1] = system: H1N1 A1/Malaysia/302/1954; conditions: A1/Malaysia/302/1954, 48 h

Row | SMILES | % inhibition H9N2 (H9N2 A/Iran/16/2000) | % inhibition H3N8 (H3N8 A/Miami/2/63; 50 μM) | % inhibition H3N2 (H3N2 A/HK/8/1968; 50 μM) | % inhibition H1N1 ([1]; 50 μM) | % inhibition H3N8 (H3N8 A/Miami/2/63; 500 μM) | % inhibition H3N2 (H3N2 A/HK/8/1968; 500 μM) | % inhibition H1N1 ([1]; 500 μM)
1 | CC[C@@H](C)[C@H]1NC(=O)[C@@H](Cc2ccccc2)NC(=O)[C@@H](CCCNC(=N)N)NC(=O)[C@@H](C)NC(=O)[C@@H](Cc2c[nH]c3ccccc23)NC(=O)[C@@H]([C@H](C)O)NC(=O)[C@H](NC(=O)[C@H](CCCCN)NC(=O)[C@H](CCCCN)NC(=O)[C@H](CCCNC(=N)N)NC(=O)[C@@H](N)CCCNC(=N)N)CSSC[C@H](C(=O)O)NC(=O)[C@@H](CC(N)=O)NC1=O [PSP III B1, H-RRKKctwarfinc-OH] (H-RRKK[dC][dT][dW][dA][dR][dF][dI][dN][dC]-OH; disulfide 5-13) | 95% | 96% | 92% | 85% |  |  | 
2 | CC[C@@H](C)[C@H]1NC(=O)[C@@H](Cc2ccccc2)NC(=O)[C@@H](CCCNC(=N)N)NC(=O)[C@@H](CC(C)C)NC(=O)[C@@H](Cc2c[nH]c3ccccc23)NC(=O)[C@@H]([C@H](C)O)NC(=O)[C@H](NC(=O)[C@H](CCCCN)NC(=O)[C@H](CCCCN)NC(=O)[C@H](CCCNC(=N)N)NC(=O)[C@@H](N)CCCNC(=N)N)CSSC[C@H](C(=O)O)NC(=O)[C@@H](CC(N)=O)NC1=O [PSP III B10, H-RRKKctwlrfinc-OH] (H-RRKK[dC][dT][dW][dL][dR][dF][dI][dN][dC]-OH; disulfide 5-13) | 90% | 96% | 100% | 92% |  |  | 
3 | C[C@H](O)[C@H]1NC(=O)[C@H](N)CSSC[C@H](C(=O)O)NC(=O)[C@@H](CC(N)=O)NC(=O)[C@@H](Cc2ccccc2)NC(=O)[C@@H](Cc2ccccc2)NC(=O)[C@@H](CCCNC(=N)N)NC(=O)[C@@H](CO)NC(=O)[C@@H](CCCCN)NC1=O [PSP 5, H-ctksrffnc-OH] (H-[dC][dT][dK][dS][dR][dF][dF][dN][dC]-OH; disulfide 1-9) |  |  |  |  | 77.3% | 45.5% | 47.1%
4 | C[C@H](O)[C@H]1NC(=O)[C@H](N)CSSC[C@H](C(=O)O)NC(=O)[C@@H](CC(N)=O)NC(=O)[C@@H](CCC(=O)O)NC(=O)[C@@H](Cc2ccccc2)NC(=O)[C@@H](CCCNC(=N)N)NC(=O)[C@@H](CO)NC(=O)[C@@H](CCCCN)NC1=O [PSP 4, H-ctksrfenc-OH] (H-[dC][dT][dK][dS][dR][dF][dE][dN][dC]-OH; disulfide 1-9) |  |  |  |  | 64% | 22.7% | 52.9%
5 | C[C@H](O)[C@H]1NC(=O)[C@H](N)CSSC[C@H](C(=O)O)NC(=O)[C@@H](CC(N)=O)NC(=O)[C@@H](Cc2c[nH]c3ccccc23)NC(=O)[C@@H](Cc2ccccc2)NC(=O)[C@@H](CCCNC(=N)N)NC(=O)[C@@H](CO)NC(=O)[C@@H](CCCCN)NC1=O [PSP 19, H-ctksrfwnc-OH] (H-[dC][dT][dK][dS][dR][dF][dW][dN][dC]-OH; disulfide 1-9) |  |  |  |  | 78.4% | 92.6% | 28.8%
6 | C[C@H](O)[C@H]1NC(=O)[C@H](N)CSSC[C@H](C(=O)O)NC(=O)[C@@H](CC(N)=O)NC(=O)[C@@H](CCCNC(=N)N)NC(=O)[C@@H](Cc2ccccc2)NC(=O)[C@@H](CCCNC(=N)N)NC(=O)[C@@H](CO)NC(=O)[C@@H](CCCCN)NC1=O [PSP 15, H-ctksrfrnc-OH] (H-[dC][dT][dK][dS][dR][dF][dR][dN][dC]-OH; disulfide 1-9) |  |  |  |  | 61.9% | 3.7% | 11.5%
7 | C[C@H](O)[C@H]1NC(=O)[C@H](N)CSSC[C@H](C(=O)O)NC(=O)[C@@H](CC(N)=O)NC(=O)[C@@H](CS)NC(=O)[C@@H](Cc2ccccc2)NC(=O)[C@@H](CCCNC(=N)N)NC(=O)[C@@H](CO)NC(=O)[C@@H](CCCCN)NC1=O [PSP 2, H-ctksrfcnc-OH] (H-[dC][dT][dK][dS][dR][dF][dC][dN][dC]-OH; disulfide 1-9) |  |  |  |  | 65% | 18.5% | 67.6%
